Measured values reported in patent publication US20250179055A1, “Substituted 2-(pyrrolidine-3-yl)acetic acid derivative, preparation method and use thereof” (INNOVSTONE THERAPEUTICS LIMITED, priority 2023, published 2025).

Target: Lp(a) assembly in HepG2 cells overexpressing ApoA protein (Homo sapiens (Human), UniProt P08519)
Experiment: ELISA assay on screening Lp(a) assembly inhibition
Type: cell-based
Conditions: HepG2 cells overexpressing ApoA protein, 24 h, ELISA of supernatant
Procedure: Test Example 1 and Methods of ELISA Assay on Screening Lp(a) Assembly Inhibition
• 1) Preheated the culture media, DPBS, and pancreatin in a 37° C. water bath in advance. • 2) Digested cells with pancreatin, transferred the cell suspension to a 15 mL centrifuge tube, and centrifuged at 1000 rpm for 5 min. • 3) Resuspended the cells with culture media and transferred the cell suspension to a new T75 cell culture flask. • 4) Cultured at 37° C. in a 5% CO2 incubator.
• 1) Seeded HepG2 cells overexpressing of ApoA protein into a 96-well plate at 100 μL per well and incubated overnight for attachment. • 2) Replaced with fresh culture media the next day, then added diluted compounds, and cultured the cell plate in a 5% CO2, 37° C. incubator for 24 h.
• 1) Added 10 μL of 1.5 M EACA to each well. • 2) Centrifuged at 1000 rpm for 1 min, and transferred 100 μL of cell culture supernatant to a pre-coated ELISA plate.
• 1) Added 100 μL of capture antibody to each well of a pre-coated ELISA plate and incubated overnight at 25° C. • 2) Added 300 μL of washing solution to each well and washed 5 times for 1 min each time. • 3) Added 100 μL of blocking solution to each well and incubated at 25° C. for 2 h. • 4) Added 300 μL of washing solution to each well and washed 5 times for 1 min each time. • 5) Added 100 μL of sample to each well and incubated at 25° C. for 1 h. • 6) Added 300 μL of washing solution to each well and washed 5 times for 1 min each time. • 7) Added 100 μL of detection antibody to each well and incubated at 25° C. for 1 h. • 8) Added 300 μL of washing solution to each well and washed 5 times for 1 min each time. • 9) Added 100 μL substrate solution (Color Reagent A: Color Reagent B, 1:1) to each well and incubated for 20 min at 25° C. in the dark. • 10) Added […] of stop solution to each well, gently blowed and sucked several times with the pipette tip, and read within 5 min.
[formula] • X: cpd concentration • Y: inhibition % • Top and Bottom: Plateaus in same units as Y • log IC50: same log units as X • HillSlope: Slope factor or Hill slope

Sequence of Lp(a) assembly in HepG2 cells overexpressing ApoA protein (P08519 20-2040): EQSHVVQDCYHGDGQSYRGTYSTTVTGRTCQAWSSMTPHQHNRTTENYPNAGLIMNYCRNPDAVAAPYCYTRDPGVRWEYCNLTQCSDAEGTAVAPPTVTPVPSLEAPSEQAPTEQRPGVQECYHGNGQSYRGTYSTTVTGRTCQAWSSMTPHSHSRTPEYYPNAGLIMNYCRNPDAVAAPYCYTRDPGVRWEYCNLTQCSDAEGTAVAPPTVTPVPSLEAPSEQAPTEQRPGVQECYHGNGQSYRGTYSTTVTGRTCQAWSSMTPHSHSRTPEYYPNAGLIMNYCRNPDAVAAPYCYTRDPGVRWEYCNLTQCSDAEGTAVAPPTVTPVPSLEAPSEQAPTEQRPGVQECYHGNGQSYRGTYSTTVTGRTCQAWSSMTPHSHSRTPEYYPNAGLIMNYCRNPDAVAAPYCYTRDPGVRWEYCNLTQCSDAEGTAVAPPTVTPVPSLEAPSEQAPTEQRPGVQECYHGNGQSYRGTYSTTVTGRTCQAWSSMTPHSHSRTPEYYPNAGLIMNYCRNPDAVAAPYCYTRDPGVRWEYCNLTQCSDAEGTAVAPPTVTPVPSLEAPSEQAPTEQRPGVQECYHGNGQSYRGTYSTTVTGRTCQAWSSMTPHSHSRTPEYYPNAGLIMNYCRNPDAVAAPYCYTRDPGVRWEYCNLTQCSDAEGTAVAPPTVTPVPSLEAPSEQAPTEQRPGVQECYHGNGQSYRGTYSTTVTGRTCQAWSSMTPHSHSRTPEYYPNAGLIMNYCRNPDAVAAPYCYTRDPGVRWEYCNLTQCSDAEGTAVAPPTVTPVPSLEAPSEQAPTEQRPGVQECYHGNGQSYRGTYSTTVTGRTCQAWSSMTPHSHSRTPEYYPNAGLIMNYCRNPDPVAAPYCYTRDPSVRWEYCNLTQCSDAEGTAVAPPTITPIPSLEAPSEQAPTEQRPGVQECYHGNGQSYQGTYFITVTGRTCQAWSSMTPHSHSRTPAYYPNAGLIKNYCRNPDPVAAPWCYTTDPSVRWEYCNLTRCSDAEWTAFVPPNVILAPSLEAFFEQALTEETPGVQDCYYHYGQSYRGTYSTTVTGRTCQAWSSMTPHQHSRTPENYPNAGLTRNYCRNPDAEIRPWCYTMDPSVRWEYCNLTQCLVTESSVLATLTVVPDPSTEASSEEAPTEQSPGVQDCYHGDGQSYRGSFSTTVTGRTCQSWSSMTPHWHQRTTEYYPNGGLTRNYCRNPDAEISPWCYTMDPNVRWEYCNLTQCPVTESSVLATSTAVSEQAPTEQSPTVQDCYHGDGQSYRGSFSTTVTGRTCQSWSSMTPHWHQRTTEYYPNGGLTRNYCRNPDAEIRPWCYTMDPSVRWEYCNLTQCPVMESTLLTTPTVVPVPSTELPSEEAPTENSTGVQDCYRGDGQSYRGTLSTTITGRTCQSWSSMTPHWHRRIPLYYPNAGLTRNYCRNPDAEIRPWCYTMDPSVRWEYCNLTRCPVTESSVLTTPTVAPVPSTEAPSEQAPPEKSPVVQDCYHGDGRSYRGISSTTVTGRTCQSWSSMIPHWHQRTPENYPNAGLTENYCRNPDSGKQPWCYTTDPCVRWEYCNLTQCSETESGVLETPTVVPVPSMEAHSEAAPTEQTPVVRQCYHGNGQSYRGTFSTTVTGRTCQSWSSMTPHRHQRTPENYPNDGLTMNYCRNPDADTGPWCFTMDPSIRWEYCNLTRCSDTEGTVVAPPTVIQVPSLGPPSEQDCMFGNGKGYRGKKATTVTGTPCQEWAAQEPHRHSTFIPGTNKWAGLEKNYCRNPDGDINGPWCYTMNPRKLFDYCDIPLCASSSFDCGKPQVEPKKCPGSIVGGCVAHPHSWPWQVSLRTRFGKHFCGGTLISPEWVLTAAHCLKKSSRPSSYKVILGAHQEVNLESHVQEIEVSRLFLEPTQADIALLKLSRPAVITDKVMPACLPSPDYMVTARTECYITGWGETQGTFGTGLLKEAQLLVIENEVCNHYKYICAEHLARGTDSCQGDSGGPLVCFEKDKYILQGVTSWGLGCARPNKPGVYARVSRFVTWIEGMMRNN

Structure (SMILES) | IC50
[2H]C([2H])(c1cccc(C[C@H](C(=O)O)[C@H]2CCNC2)c1)N(Cc1cccc(C[C@H](C(=O)O)[C@H]2CCNC2)c1)Cc1cccc(C[C@H](C(=O)O)[C@H]2CCNC2)c1 [Compound 94, (2S,2′S)-3,3′-(((((3-((S)-2-carboxy-2-((R)-pyrrolidin-3-yl)ethyl)phenyl)methyl-d2)azanediyl)bis(methylene))bis(3,1-phenylene))bis(2-((R)-pyrrolidin-3-yl)propanoic acid)] | 0.65 nM
N[C@@H](CCCCN(Cc1cc(F)cc(C[C@H](C(=O)O)[C@H]2CCNC2)c1)Cc1cc(F)cc(C[C@H](C(=O)O)[C@H]2CCNC2)c1)C(=O)O [Compound 5, (2S,2′S)-3,3′-(((((S)-5-amino-5-carboxypentyl)azanediyl)bis(methylene))bis(5-fluoro-3,1-phenylene))bis(2-((R)-pyrrolidin-3-yl)propanoic acid)] | 4.12 nM
O=C(O)[C@@H](Cc1cccc(CCN(CCOc2cccc(C[C@H](C(=O)O)[C@H]3CCNC3)c2)C(=O)c2cccc(C[C@H](C(=O)O)[C@H]3CCNC3)c2)c1)[C@H]1CCNC1 [Compound 106, (S)-3-(3-(2-(3-((S)-2-carboxy-2-((R)-pyrrolidin-3-yl)ethyl)-N-(2-(3-((S)-2-carboxy-2-((R)-pyrrolidin-3-yl)ethyl)phenoxy)ethyl)benzamido)ethyl)phenyl)-2-((R)-pyrrolidin-3-yl)propanoic acid] | 1.84 nM
O=C(O)[C@@H](Cc1cccc(CCN(Cc2cccc(C[C@H](C(=O)O)[C@H]3CCNC3)c2)C(=O)c2cccc(C[C@H](C(=O)O)[C@H]3CCNC3)c2)c1)[C@H]1CCNC1 [Compound 99, (S)-3-(3-(2-(3-((S)-2-carboxy-2-((R)-pyrrolidin-3-yl)ethyl)-N-(3-((S)-2-carboxy-2-((R)-pyrrolidin-3-yl)ethyl)benzyl)benzamido)ethyl)phenyl)-2-((R)-pyrrolidin-3-yl)propanoic acid] | 0.96 nM
O=C(O)[C@@H](Cc1cc2ccc(CN(Cc3ccc4cc(C[C@H](C(=O)O)[C@H]5CCNC5)sc4c3)Cc3ccc4cc(C[C@H](C(=O)O)[C@H]5CCNC5)sc4c3)cc2s1)[C@H]1CCNC1 [Compound 103, (2S,2′S,2″S)-3,3′,3″-((nitrilotris(methylene))tris(benzo[b]thiophene-6,2-diyl))tris(2-((R)-pyrrolidin-3-yl)propanoic acid)] | 2.11 nM
O=C(O)[C@@H](Cc1cccc(CN(Cc2cccc(C[C@H](C(=O)O)[C@H]3CCNC3)c2)Cc2coc3ccc(C[C@H](C(=O)O)[C@H]4CCNC4)cc23)c1)[C@H]1CCNC1 [Compound 6, (2S,2′S)-3,3′-(((((5-((S)-2-carboxy-2-((R)-pyrrolidin-3-yl)ethyl)benzofuran-3-yl)methyl)azanediyl)bis(methylene))bis(3,1-phenylene))bis(2-((R)-pyrrolidin-3-yl)propanoic acid)] | 1.13 nM
O=C(CN(CCOc1cccc(C[C@H](C(=O)O)[C@H]2CCNC2)c1)CC(=O)c1cccc(C[C@H](C(=O)O)[C@H]2CCNC2)c1)c1cccc(C[C@H](C(=O)O)[C@H]2CCNC2)c1 [Compound 80, (2S,2′S)-3,3′-((2,2′-((2-(3-((S)-2-carboxy-2-((R)-pyrrolidin-3-yl)ethyl)phenoxy)ethyl)azanediyl)bis(acetyl))bis(3,1-phenylene))bis(2-((R)-pyrrolidin-3-yl)propanoic acid)] | 2.31 nM
O=C(O)[C@@H](Cc1cc(CN(Cc2cc(C[C@H](C(=O)O)[C@H]3CCNC3)cc3ccoc23)Cc2cc(C[C@H](C(=O)O)[C@H]3CCNC3)cc3ccoc23)c2occc2c1)[C@H]1CCNC1 [Compound 102, (2S,2′S,2″S)-3,3′,3″-((nitrilotris(methylene))tris(benzofuran-7,5-diyl))tris(2-((R)-pyrrolidin-3-yl)propanoic acid)] | 0.74 nM

Results, then the molecule that gave them:

IC50 | Structure (SMILES)
1.08 nM | O=C(O)[C@@H](Cc1csc(CN(Cc2cc(C[C@H](C(=O)O)[C@H]3CCNC3)cs2)Cc2cc(C[C@H](C(=O)O)[C@H]3CCNC3)cs2)c1)[C@H]1CCNC1 [Compound 137, (2S,2′S,2″S)-3,3′,3″-((nitrilotris(methylene))tris(thiophene-5,3-diyl))tris(2-((R)-pyrrolidin-3-yl)propanoic acid)]
0.86 nM | O=C(O)[C@@H](Cc1cccc(CCC(=O)N(CCNc2cccc(C[C@H](C(=O)O)[C@H]3CCNC3)c2)Cc2cccc(C[C@H](C(=O)O)[C@H]3CCNC3)c2)c1)[C@H]1CCNC1 [Compound 147, (S)-3-(3-(3-((3-((S)-2-carboxy-2-((R)-pyrrolidin-3-yl)ethyl)benzyl)(2-((3-((S)-2-carboxy-2-((R)-pyrrolidin-3-yl)ethyl)phenyl)amino)ethyl)amino)-3-oxopropyl)phenyl)-2-((R)-pyrrolidin-3-yl)propanoic acid]
1.45 nM | O=C(CN(Cc1cccc(C[C@H](C(=O)O)[C@H]2CCNC2)c1)Cc1cccc(C[C@H](C(=O)O)[C@H]2CCNC2)c1)c1cccc(C[C@H](C(=O)O)[C@H]2CCNC2)c1 [Compound 130, (2S,2′S)-3,3′-((((2-(3-((S)-2-carboxy-2-((R)-pyrrolidin-3-yl)ethyl)phenyl)-2-oxoethyl)azanediyl)bis(methylene))bis(3,1-phenylene))bis(2-((R)-pyrrolidin-3-yl)propanoic acid)]
2.53 nM | O=C(O)[C@@H](Cc1cccc(OCc2cc(COc3cccc(C[C@H](C(=O)O)[C@H]4CCNC4)c3)cc(COc3cccc(C[C@H](C(=O)O)[C@H]4CCNC4)c3)c2)c1)[C@H]1CCNC1 [Compound 149, (2S,2′S,2″S)-3,3′,3″-(((benzene-1,3,5-triyltris(methylene))tris(oxy))tris(benzene-3,1-diyl))tris(2-((R)-pyrrolidin-3-yl)propanoic acid)]
3.81 nM | O=C(Cc1cccc(CC(C(=O)O)C2CCNC2)c1)NCc1cccc(C[C@H](C(=O)O)[C@H]2CCNC2)c1 (stereo in doubt) [Compound 143, (S)-3-(3-(2-((3-((S)-2-carboxy-2-((R)-pyrrolidin-3-yl)ethyl)benzyl)amino)-2-oxoethyl)phenyl)-2-((R)-pyrrolidin-3-yl)propanoic acid]
1.5 nM | O=C(O)[C@@H](Cc1cccc(CCC(=O)N(CCOc2cccc(C[C@H](C(=O)O)[C@H]3CCNC3)c2)CCOc2cccc(C[C@H](C(=O)O)[C@H]3CCNC3)c2)c1)[C@H]1CCNC1 [Compound 148, (2S,2′S)-3,3′-(((((3-(3-((S)-2-carboxy-2-((R)-pyrrolidin-3-yl)ethyl)phenyl)propanoyl)azanediyl)bis(ethane-2,1-diyl))bis(oxy))bis(3,1-phenylene))bis(2-((R)-pyrrolidin-3-yl)propanoic acid)]
1.26 nM | O=C(O)[C@@H](Cc1cccc(CN(Cc2cccc(C[C@H](C(=O)O)[C@H]3CCNC3)c2)Cc2ccc3oc(C[C@H](C(=O)O)[C@H]4CCNC4)cc3c2)c1)[C@H]1CCNC1 [Compound 126, (2S,2′S)-3,3′-(((((2-((S)-2-carboxy-2-((R)-pyrrolidin-3-yl)ethyl)benzofuran-5-yl)methyl)azanediyl)bis(methylene))bis(3,1-phenylene))bis(2-((R)-pyrrolidin-3-yl)propanoic acid)]
0.85 nM | O=C(O)[C@@H](Cc1cccc(CN(CCOc2cccc(C[C@H](C(=O)O)[C@H]3CCNC3)c2)C(=O)CNc2cccc(C[C@H](C(=O)O)[C@H]3CCNC3)c2)c1)[C@H]1CCNC1 [Compound 134, (S)-3-(3-((2-((3-((S)-2-carboxy-2-((R)-pyrrolidin-3-yl)ethyl)benzyl)(2-(3-((S)-2-carboxy-2-((R)-pyrrolidin-3-yl)ethyl)phenoxy)ethyl)amino)-2-oxoethyl)amino)phenyl)-2-((R)-pyrrolidin-3-yl)propanoic acid]
3.4 nM | O=C(CN(CCOc1cccc(C[C@H](C(=O)O)[C@H]2CCNC2)c1)CCOc1cccc(C[C@H](C(=O)O)[C@H]2CCNC2)c1)c1cccc(C[C@H](C(=O)O)[C@H]2CCNC2)c1 [Compound 112, (2S,2′S)-3,3′-(((((2-(3-((S)-2-carboxy-2-((R)-pyrrolidin-3-yl)ethyl)phenyl)-2-oxoethyl)azanediyl)bis(ethane-2,1-diyl))bis(oxy))bis(3,1-phenylene))bis(2-((R)-pyrrolidin-3-yl)propanoic acid)]
1.87 nM | O=C(O)[C@@H](Cc1cccc(COc2cc(OCc3cccc(C[C@H](C(=O)O)[C@H]4CCNC4)c3)cc(OCc3cccc(C[C@H](C(=O)O)[C@H]4CCNC4)c3)c2)c1)[C@H]1CCNC1 [Compound 122, (2S,2′S,2″S)-3,3′,3″-(((benzene-1,3,5-triyltris(oxy))tris(methylene))tris(benzene-3,1-diyl))tris(2-((R)-pyrrolidin-3-yl)propanoic acid)]
